Assay results reported in US20180214428A1, “3-(1H-INDOL-2-YL)-1H-PYRAZOLO[3,4-B]PYRIDINES AND THERAPEUTIC USES THEREOF” (Samumed, LLC, priority 2015, published 2018).

Tests used:
SW480 colon cancer cells = assay: Cell viability assay (CellTiter-Blue) in SW480 colon cancer cells; type: cell-based, human; settings: Homo sapiens; for EC50: 96 h, four days, CellTiter-Blue; for inhibition at 10 µM: given for EC50 of >10 μM, read-out: percent inhibition at 10 μM
Outline: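 SW480 cells (~2×10^3 per well) were exposed to compound for four days at 37 °C/5% CO2, using 8-point 1:3 dilutions from 10 μM to 0.0045 μM in duplicate. Viability was read by resazurin reduction (CellTiter-Blue, ~3 h, Ex 560/Em 590 nm). EC50 came from non-linear regression; above 10 μM, percent inhibition at 10 μM is given.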

[1] = system: primary human fibroblasts derived from IPF patients (LL29 cells); assay: Inhibition of the fibrotic process: αSMA staining in TGF-β1 treated LL29 fibroblasts; type: cell-based; settings: Homo sapiens, Fibroblast; for EC50: 96 h, TGF-β1 20 ng/mL, 4 days, % αSMA positive cells; for inhibition at 10 µM: given for EC50 of >10 μM, TGF-β1, αSMA, read-out: percent inhibition at 10 μM
Outline: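 IPF patient-derived LL29 fibroblasts in 1% FBS medium got compound (11-point, 10 μM to 1.87 nM, 0.1% DMSO) plus TGF-β1 20 ng/mL, 4 days at 37° C. αSMA-positive live cells (SYTOX-excluded) were imaged, normalized to TGF-β1 controls and fitted for EC50; % inhibition at 10 μM given when EC50 >10 μM.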

IL-6 = IL-6 inhibition in LPS-stimulated THP-1 monocytes (HTRF); type: cell-based, human; settings: Homo sapiens, THP-1 cells; for EC50: 500 ng/mL LPS, 22 h, HTRF IL-6 readout, 10-point dose-response from 10 μM; for inhibition at 10 µM: LPS stimulated, given only where EC50 >10 μM, top concentration 10 μM, read-out: percentage in parentheses beside EC50 >10 (IL-6 inhibition)
Outline: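 THP-1 cells serum-reduced (1% FBS, 24 h), then 5000 cells/well preincubated 2 h with compound (10-point 1:3 series from 10 μM, 0.1% DMSO) before 500 ng/mL LPS for 22 h at 37 °C. Secreted IL-6 quantified by HTRF 665/620 ratio; DMSO-normalised duplicates fitted to four-parameter EC50; above 10 μM, % inhibition at 10 μM given.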

SMILES	EC50 (SW480 colon cancer cells)	inhibition at 10 µM (SW480 colon cancer cells)	EC50 [1]	EC50 (IL-6)	inhibition at 10 µM (IL-6)	inhibition at 10 µM [1]
Fc1cccc(-c2cccc3[nH]c(-c4n[nH]c5ncc(-c6cncc(OCc7ccccc7)c6)cc45)cc23)c1 [Compound 520, 5-(5-(Benzyloxy)pyridin-3-yl)-3-(4-(3-fluorophenyl)-1H-indol-2-yl)-1H-pyrazolo[3,4-b]pyridine]	> 10 µM	13.3%	9.82 µM	> 10 µM	31.3%	–
O=C(CC1CCNCC1)Nc1cncc(-c2cnc3[nH]nc(-c4cc5c(-c6ccccn6)cccc5[nH]4)c3c2)c1 [Compound 595, 2-(Piperidin-4-yl)-N-(5-(3-(4-(pyridin-2-yl)-1H-indol-2-yl)-1H-pyrazolo[3,4-b]pyridin-5-yl)pyridin-3-yl)acetamide]	> 10 µM	11.3%	5.61 µM	0.247 µM	–	–
FC1(F)CCN(Cc2cncc(-c3cnc4[nH]nc(-c5cc6ncccc6[nH]5)c4c3)c2)C1 [Compound 504, 5-(5-((3,3-Difluoropyrrolidin-1-yl)methyl)pyridin-3-yl)-3-(1H-pyrrolo[3,2-b]pyridin-2-yl)-1H-pyrazolo[3,4-b]pyridine]	0.113 µM	–	> 10 µM	0.116 µM	–	14.8%
CCNCc1cncc(-c2cnc3[nH]nc(-c4cc5c(N6CCCCC6)cccc5[nH]4)c3c2)c1 [Compound 150, N-((5-(3-(4-(Piperidin-1-yl)-1H-indol-2-yl)-1H-pyrazolo[3,4-b]pyridin-5-yl)pyridin-3-yl)methyl)ethanamine]	2.83 µM	–	2.74 µM	1.46 µM	–	–
CCNCc1cncc(-c2cnc3[nH]nc(-c4cc5c(-c6ccccn6)cccc5[nH]4)c3c2)c1 [Compound 124, N-((5-(3-(4-(Pyridin-2-yl)-1H-indol-2-yl)-1H-pyrazolo[3,4-b]pyridin-5-yl)pyridin-3-yl)methyl)ethanamine]	4.91 µM	–	1.8 µM	0.194 µM	–	–
CCCCC(=O)Nc1cncc(-c2cnc3[nH]nc(-c4cc5c(-c6ccccn6)cccc5[nH]4)c3c2)c1 [Compound 136, N-(5-(3-(4-(Pyridin-2-yl)-1H-indol-2-yl)-1H-pyrazolo[3,4-b]pyridin-5-yl)pyridin-3-yl)pentanamide]	4.71 µM	–	2.67 µM	1.89 µM	–	–
CN(C)c1cncc(-c2cnc3[nH]nc(-c4cc5c(N6CCCCC6)cccc5[nH]4)c3c2)c1 [Compound 151, N,N-Dimethyl-5-(3-(4-(piperidin-1-yl)-1H-indol-2-yl)-1H-pyrazolo[3,4-b]pyridin-5-yl)pyridin-3-amine]	5.26 µM	–	1.63 µM	5.25 µM	–	–
CC(C)C(=O)Nc1cncc(-c2cnc3[nH]nc(-c4cc5c(N6CCN(C)CC6)cccc5[nH]4)c3c2)c1 [Compound 209, N-(5-(3-(4-(4-Methylpiperazin-1-yl)-1H-indol-2-yl)-1H-pyrazolo[3,4-b]pyridin-5-yl)pyridin-3-yl)isobutyramide]	> 10 µM	41.5%	5.62 µM	1.21 µM	–	–
CN(C)c1cncc(-c2cnc3[nH]nc(-c4cc5c(-c6cccc(F)c6)cccc5[nH]4)c3c2)c1 [Compound 5, 5-(3-(4-(3-Fluorophenyl)-1H-indol-2-yl)-1H-pyrazolo[3,4-b]pyridin-5-yl)-N,N-dimethylpyridin-3-amine]	2.59 µM	–	0.95 µM	0.899 µM	–	–
CN(C)CCOc1cncc(-c2cnc3[nH]nc(-c4cc5c(-c6cccnc6)cccc5[nH]4)c3c2)c1 [Compound 565, N,N-Dimethyl-2-((5-(3-(4-(pyridin-3-yl)-1H-indol-2-yl)-1H-pyrazolo[3,4-b]pyridin-5-yl)pyridin-3-yl)oxy)ethan-1-amine]	3.78 µM	–	1.93 µM	1.98 µM	–	–
CC(C)(C)CC(=O)Nc1cncc(-c2cnc3[nH]nc(-c4cc5ccccc5[nH]4)c3c2)c1 [Compound 242, N-(5-(3-(1H-Indol-2-yl)-1H-pyrazolo[3,4-b]pyridin-5-yl)pyridin-3-yl)-3,3-dimethylbutanamide]	> 10 µM	14.3%	> 10 µM	0.303 µM	–	0%
CN(C)CCNc1cc(F)cc(-c2cccc3[nH]c(-c4n[nH]c5ncc(-c6cncc(NC(=O)C7CCC7)c6)cc45)cc23)c1 [Compound 443, N-(5-(3-(4-(3-((2-(Dimethylamino)ethyl)amino)-5-fluorophenyl)-1H-indol-2-yl)-1H-pyrazolo[3,4-b]pyridin-5-yl)pyridin-3-yl)cyclobutanecarboxamide]	1.23 µM	–	0.99 µM	> 10 µM	47.3%	–
Fc1ccc(-c2cccc3[nH]c(-c4n[nH]c5ncc(-c6cncnc6)cc45)cc23)cc1 [Compound 47, 3-(4-(4-Fluorophenyl)-1H-indol-2-yl)-5-(pyrimidin-5-yl)-1H-pyrazolo[3,4-b]pyridine]	> 10 µM	11.8%	4.96 µM	> 10 µM	35.6%	–
Fc1ccc(-c2cccc3[nH]c(-c4n[nH]c5ncc(-c6cncc(CN7CCCCC7)c6)cc45)cc23)cc1 [Compound 36, 3-(4-(4-Fluorophenyl)-1H-indol-2-yl)-5-(5-(piperidin-1-ylmethyl)pyridin-3-yl)-1H-pyrazolo[3,4-b]pyridine]	> 10 µM	59.2%	2.44 µM	> 10 µM	45.5%	–
CN1CCN(c2cccc3[nH]c(-c4n[nH]c5ncc(-c6cncc(CN7CCCCC7)c6)cc45)cc23)CC1 [Compound 215, 3-(4-(4-Methylpiperazin-1-yl)-1H-indol-2-yl)-5-(5-(piperidin-1-ylmethyl)pyridin-3-yl)-1H-pyrazolo[3,4-b]pyridine]	3.52 µM	–	1.76 µM	0.22 µM	–	–
c1ccc(CNCc2cncc(-c3cnc4[nH]nc(-c5cc6c(-c7ccncc7)cccc6[nH]5)c4c3)c2)cc1 [Compound 116, N-Benzyl-1-(5-(3-(4-(pyridin-4-yl)-1H-indol-2-yl)-1H-pyrazolo[3,4-b]pyridin-5-yl)pyridin-3-yl)methanamine]	3.59 µM	–	2.53 µM	> 10 µM	41.7%	–
FC1(F)CCN(Cc2cncc(-c3cnc4[nH]nc(-c5cc6c(-c7ccoc7)cccc6[nH]5)c4c3)c2)C1 [Compound 308, 5-(5-((3,3-Difluoropyrrolidin-1-yl)methyl)pyridin-3-yl)-3-(4-(furan-3-yl)-1H-indol-2-yl)-1H-pyrazolo[3,4-b]pyridine]	2.99 µM	–	3.21 µM	7.15 µM	–	–
Fc1cccc(-c2cccc3[nH]c(-c4n[nH]c5ncc(-c6cccnc6)cc45)cc23)c1 [Compound 2, 3-(4-(3-Fluorophenyl)-1H-indol-2-yl)-5-(pyridin-3-yl)-1H-pyrazolo[3,4-b]pyridine]	> 10 µM	4%	1.43 µM	0.015 µM	–	–
Fc1ccc(-c2cccc3[nH]c(-c4n[nH]c5ncc(-c6cncc(CN7CCCC7)c6)cc45)cc23)cc1 [Compound 35, 3-(4-(4-Fluorophenyl)-1H-indol-2-yl)-5-(5-(pyrrolidin-1-ylmethyl)pyridin-3-yl)-1H-pyrazolo[3,4-b]pyridine]	4.83 µM	–	2.35 µM	0.212 µM	–	–
O=C(Nc1cncc(-c2cnc3[nH]nc(-c4cc5c(-c6ccccc6F)cccc5[nH]4)c3c2)c1)C1CCCC1 [Compound 66, N-(5-(3-(4-(2-Fluorophenyl)-1H-indol-2-yl)-1H-pyrazolo[3,4-b]pyridin-5-yl)pyridin-3-yl)cyclopentanecarboxamide]	> 10 µM	53.2%	6.53 µM	9.78 µM	–	–
O=C(Nc1cncc(-c2cnc3[nH]nc(-c4cc5c(-c6ccccn6)cccc5[nH]4)c3c2)c1)c1ccccc1 [Compound 128, N-(5-(3-(4-(Pyridin-2-yl)-1H-indol-2-yl)-1H-pyrazolo[3,4-b]pyridin-5-yl)pyridin-3-yl)benzamide]	0.701 µM	–	0.468 µM	0.009 µM	–	–
Oc1cncc(-c2cnc3[nH]nc(-c4cc5c(-c6cccs6)cccc5[nH]4)c3c2)c1 [Compound 711, 5-(3-(4-(Thiophen-2-yl)-1H-indol-2-yl)-1H-pyrazolo[3,4-b]pyridin-5-yl) pyridin-3-ol]	> 10 µM	10.3%	0.456 µM	1.96 µM	–	–
Fc1cccc(-c2cccc3[nH]c(-c4n[nH]c5ncc(-c6ccncc6)cc45)cc23)c1 [Compound 15, 3-(4-(3-Fluorophenyl)-1H-indol-2-yl)-5-(pyridin-4-yl)-1H-pyrazolo[3,4-b]pyridine]	> 10 µM	31.5%	1.7 µM	> 10 µM	55.9%	–
